Test results from article PMC10141604, “Small-Molecule Inhibition of Androgen Receptor Dimerization as a Strategy against Prostate Cancer” (ACS Central Science, 2023).

Tests used:
AR LBD dimerization = target: T1, AR LBD dimerization (Homo sapiens, UniProt P10275); experiment: Acceptor photobleaching FRET microscopy assay in HEK293T cells; type: cell-based; settings: 10 μM, 10 nM DHT
T1 construct: LBD residues (613 -920); expressed in transfected cells; host or cells: HEK293T
Experimental: (22.86 nM - 50 μM). After another 24 h incubation, the luciferase activities were determined by the Dual -Glo Luciferase system (#E1910, Promega) according to the […]
Acceptor Photobleaching Fluorescence Resonance Energy Transfer (FRET) […]
The pCMV-cyan fluorescent protein (CFP, #D2623) and pCMV -yellow fluorescent protein (YFP, #D2716) plasmids were purchased from Beyotime Biotechnology. We constructed pCMV -YFP-(AR LBD) and pCMV -(AR LBD)-CFP by cloning human AR LBD residues (613 -920) into the fluorescent protein vector using seamless cloning kit (#C112-01, CloneExpress II, Vazyme). HEK293T (1× 10^5 cells/well) cells were cultured in 5% CSS DMEM media in 12-well plate with glass coverslips. The next day, ce lls were transfected with 400 ng pCMV -YFP-(AR LBD), 400 ng pCMV -(AR LBD) -CFP together with HG -Trans Gene TM transfection reagent (#TG-10012, Health & Gene™). Free YFP and CFP proteins were transfected together as control. […]
The FRET assay was then tested by Olympus FV1000 equipped with a UPlanSApo 60× /1.35 NA oil objective. CFP was detected using 405 nm excitation while YFP was excited using 515 nm at moderate laser power, and the emission was detected using a 480-495 nm bandpass emission filter and 535-565 nm bandpass emission filter, respectively.
The first pair of CFPbefore and YFPbefore was collected. […] The apparent FRET efficiency was calculated after background […]

[1] = system: endogenous PSA and AR in LNCaP cells; experiment: Western blot of PSA and AR in LNCaP cells; type: cell-based; settings: 10 nM DHT, 48 h
Experimental: individually, and all in the presence of 10 nM DHT and incubated for 48 h. Then, the cells were harvested, followed by separating the cell lysate using 10% SDS-PAGE and electro-transfer to a polyvinylidene fluoride (PVDF) membrane (Bio -Rad). Blocking buffer (#P0023B, Beyotime Biotechnology) were used to block the membranes. After 0.5
h incubation at room temperature, each membrane was further incubated with specific
Lamin B1, #AF1408, Beyotime Biotechnology) and then the corresponding secondary antibody (HRP-conjugated Goat Anti-Rabbit IgG, # D110058, Sangon Biotech). The Image J program was performed for quantitative analysis of the immunoreactive bands.

FL-AR^F876L/T877A = FL-AR^F876L/T877A (Homo sapiens, UniProt P10275, F877L/T878A); experiment: Dual-luciferase reporter assay for FL-AR F876L/T877A in PC3 cells
FL-AR^F876L/T877A, sequence (P10275 whole entry F877L/T878A): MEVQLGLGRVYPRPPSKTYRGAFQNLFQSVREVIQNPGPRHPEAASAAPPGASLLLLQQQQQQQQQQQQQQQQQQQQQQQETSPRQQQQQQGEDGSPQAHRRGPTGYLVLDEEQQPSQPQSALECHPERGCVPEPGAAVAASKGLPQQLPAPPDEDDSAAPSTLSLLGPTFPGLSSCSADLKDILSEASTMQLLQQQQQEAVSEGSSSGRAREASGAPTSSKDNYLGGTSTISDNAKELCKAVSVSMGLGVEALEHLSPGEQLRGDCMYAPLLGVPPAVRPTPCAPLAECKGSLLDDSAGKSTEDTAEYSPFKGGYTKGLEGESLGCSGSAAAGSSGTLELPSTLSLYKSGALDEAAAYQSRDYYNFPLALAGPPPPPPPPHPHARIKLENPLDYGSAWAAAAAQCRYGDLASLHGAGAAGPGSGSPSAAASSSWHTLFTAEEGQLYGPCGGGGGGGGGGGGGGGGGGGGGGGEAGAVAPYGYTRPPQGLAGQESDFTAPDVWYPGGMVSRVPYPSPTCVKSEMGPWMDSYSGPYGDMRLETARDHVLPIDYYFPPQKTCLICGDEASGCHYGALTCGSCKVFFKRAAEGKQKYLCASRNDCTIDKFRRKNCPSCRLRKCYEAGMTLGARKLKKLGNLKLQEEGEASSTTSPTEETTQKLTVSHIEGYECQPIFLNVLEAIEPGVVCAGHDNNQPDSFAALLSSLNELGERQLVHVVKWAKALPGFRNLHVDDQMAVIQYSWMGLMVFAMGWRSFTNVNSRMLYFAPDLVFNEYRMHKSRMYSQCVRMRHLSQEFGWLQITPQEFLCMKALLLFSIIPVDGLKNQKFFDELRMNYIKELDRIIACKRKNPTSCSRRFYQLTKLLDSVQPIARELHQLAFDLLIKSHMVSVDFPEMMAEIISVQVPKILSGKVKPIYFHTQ
Experimental: Luciferase Reporter Assays for FL -ARF876L and FL-ARF876L/T877A
constructed on the basis of the human full length wild type AR plasmid pCMV -hAR
transfected with 70 ng/well of FL -AR plasmid together with 24 ng of ARR2PB -Luc, and 5 ng of Renilla. After 1 day incubation at 37 °C , the antagonistic models were employed

T1 sequence (P10275 613-920): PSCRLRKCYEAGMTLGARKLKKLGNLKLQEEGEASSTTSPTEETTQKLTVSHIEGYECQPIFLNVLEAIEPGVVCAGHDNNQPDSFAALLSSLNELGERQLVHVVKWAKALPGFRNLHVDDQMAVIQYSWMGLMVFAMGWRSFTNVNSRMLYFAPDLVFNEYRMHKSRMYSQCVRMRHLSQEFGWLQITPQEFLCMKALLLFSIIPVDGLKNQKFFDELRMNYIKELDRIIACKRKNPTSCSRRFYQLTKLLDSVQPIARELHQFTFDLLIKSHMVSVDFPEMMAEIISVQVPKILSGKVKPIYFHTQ

Structure (SMILES): CC(=O)Cc1nsc(NC(=O)c2cc(-c3cccc(C(F)(F)F)c3)oc2C)n1 [Compound M17-B15]
- FRET efficiency (AR LBD dimerization) (AR LBD dimerization): lower FRET efficiency
- AR levels (Western blot) ([1]; LNCaP): does not affect
- endogenous PSA production (Western blot) ([1]; LNCaP, 0.1, 1, 10 μM): remarkably inhibited
- IC50 (FL-AR^F876L/T877A): 150 nM
